System: RSV strain A2
Test: RSV antiviral cytoprotection assay in Hep2 cells (96-well and 384-well format, Cell TiterGlo read-out)
Type: cell-based, Respiratory Syncytial Virus (RSV)
Details: human respiratory syncytial virus; for inhibition at 0.5 µM: HEp-2, 0.5 uM, RSV-induced cytopathic effect in Hep2 cells, calculated from fitted dose response curve, normalized to 0% and 100%; for EC50: HEp-2, RSV-induced cytopathic effects, Hep2 cells, class symbols

| Structure (SMILES) | inhibition at 0.5 µM | EC50 |
| --- | --- | --- |
| CC(=O)Nc1c(Cl)ccc(Cl)c1C(=O)N1CCCC[C@H]1c1cc2[nH]c(C)c(C)c(=O)n2n1 [Compound 245] | 92% | 0.1 to 100 nM |
| CC(=O)Nc1c(Cl)cc(C)cc1C(=O)N1CCCC[C@H]1c1cc2nc(C)c(C)c(N(C)C)n2n1 [Compound 246] | 98% | 0.1 to 100 nM |
| CS(=O)(=O)Nc1ccc(Cl)cc1C(=O)N1CCCC[C@H]1c1cc2nc(NCCO)cc(N3CCOCC3)n2n1 [Compound 247] | 94% | 0.1 to 100 nM |
| CC(=O)Nc1ccc(Cl)cc1C(=O)N1CCCC[C@H]1c1cc2nc(N3CC(N)C3)c(C)cn2n1 [Compound 248] | 100% | 0.1 to 100 nM |
| Cc1cn2nc([C@@H]3CCCCN3C(=O)c3cc(Cl)ccc3NC(=O)OC(C)C)cc2nc1N1CC[C@H](N)C1 [Compound 249] | 86% | 0.1 to 100 nM |
| Cc1cn2nc([C@@H]3CCCCN3C(=O)c3cc(Cl)ccc3NS(C)(=O)=O)cc2nc1N1CC(N)C(F)C1 (stereo partly shown) [Compound 250] | 90% | 0.1 to 100 nM |
| Cc1ccc(NS(C)(=O)=O)c(C(=O)N2CCC(C(F)(F)F)CC2c2cc3[nH]c(C)c(C)c(=O)n3n2)c1 (stereo not shown) [Compound 251] | 73% | 101 to 1000 nM |
| CS(=O)(=O)Nc1ccc(Cl)cc1C(=O)N1CCCC[C@H]1c1cc2nc(N3CCC3)cc(N3CCCCN3)n2n1 [Compound 252] | 92% | 0.1 to 100 nM |
| CS(=O)(=O)Nc1ccc(Cl)cc1C(=O)N1CCCC[C@H]1c1cc2nc(N3CCC3)cc(N3CCN[C@@H](C(F)F)C3)n2n1 [Compound 253] | 88% | 0.1 to 100 nM |
| CS(=O)(=O)Nc1ccc(Cl)cc1C(=O)N1CCCC[C@H]1c1cc2nc(N3CCC3)cc(CO)n2n1 [Compound 254] | 90% | 0.1 to 100 nM |
| CS(=O)(=O)Nc1ccc(Cl)cc1C(=O)N1CCCC[C@H]1c1cc2nc(N3CCC3)cc(CN3CCOCC3)n2n1 [Compound 256] | 87% | 0.1 to 100 nM |
| Cc1cn2nc([C@@H]3CCCCN3C(=O)c3ccco3)cc2nc1N1CC[C@H](N)C1 [Compound 258] | 100% | 0.1 to 100 nM |
| Cc1cn2nc([C@@H]3CCCCN3C(=O)c3cnco3)cc2nc1N1CC[C@H](N)C1 [Compound 259] | 28% | 1000 to 10000 nM |
| Cc1cn2nc([C@@H]3CCCCN3C(=O)c3cnccn3)cc2nc1N1CC[C@H](N)C1 [Compound 260] | 99% | 0.1 to 100 nM |
| Cc1cn2nc([C@@H]3CCCCN3C(=O)c3cccn3C)cc2nc1N1CC[C@H](N)C1 [Compound 261] | 81% | 101 to 1000 nM |
| Cc1cc(C(=O)N2CCCC[C@H]2c2cc3nc(N4CC[C@H](N)C4)c(C)cn3n2)[nH]n1 [Compound 262] | 100% | 0.1 to 100 nM |
| Cc1cn2nc([C@@H]3CCCCN3C(=O)c3ccnn3C)cc2nc1N1CC[C@H](N)C1 [Compound 263] | 99% | 0.1 to 100 nM |
| Cc1cc(C(=O)N2CCCC[C@H]2c2cc3nc(N4CC[C@H](N)C4)c(C)cn3n2)no1 [Compound 264] | 53% | 101 to 1000 nM |
| Cc1cn2nc([C@@H]3CCCCN3C(=O)c3ocnc3C)cc2nc1N1CC[C@H](N)C1 [Compound 265] | 100% | 0.1 to 100 nM |
| Cc1cc(C(=O)N2CCCC[C@H]2c2cc3nc(N4CC[C@H](N)C4)c(C)cn3n2)on1 [Compound 266] | 100% | 0.1 to 100 nM |

| Structure (SMILES) | inhibition at 0.5 µM | EC50 |
| --- | --- | --- |
| Cc1cn2nc([C@@H]3CCCCN3C(=O)c3ccsc3)cc2nc1N1CC[C@H](N)C1 [Compound 267] | 99% | 0.1 to 100 nM |
| Cc1cn2nc([C@@H]3CCCCN3C(=O)c3nccs3)cc2nc1N1CC[C@H](N)C1 [Compound 268] | 76% | 101 to 1000 nM |
| Cc1cn2nc([C@@H]3CCCCN3C(=O)c3cncs3)cc2nc1N1CC[C@H](N)C1 [Compound 269] | 90% | 0.1 to 100 nM |
| Cc1cn2nc([C@@H]3CCCCN3C(=O)c3cscn3)cc2nc1N1CC[C@H](N)C1 [Compound 270] | 82% | 101 to 1000 nM |
| Cc1cn2nc([C@@H]3CCCCN3C(=O)c3csnn3)cc2nc1N1CC[C@H](N)C1 [Compound 271] | 97% | 0.1 to 100 nM |
| Cc1ccnc(C(=O)N2CCCC[C@H]2c2cc3nc(N4CC[C@H](N)C4)c(C)cn3n2)c1 [Compound 272] | 100% | 0.1 to 100 nM |
| Cc1cccc(C(=O)N2CCCC[C@H]2c2cc3nc(N4CC[C@H](N)C4)c(C)cn3n2)n1 [Compound 273] | 100% | 0.1 to 100 nM |
| Cc1cn2nc([C@@H]3CCCCN3C(=O)c3ccccc3O)cc2nc1N1CC[C@H](N)C1 [Compound 274] | 100% | 0.1 to 100 nM |
| Cc1cn2nc([C@@H]3CCCCN3C(=O)c3cccnc3N)cc2nc1N1CC[C@H](N)C1 [Compound 275] | 100% | 0.1 to 100 nM |
| Cc1cn2nc([C@@H]3CCCCN3C(=O)c3cncnc3N)cc2nc1N1CC[C@H](N)C1 [Compound 276] | 90% | 101 to 1000 nM |
| Cc1cn2nc([C@@H]3CCCCN3C(=O)c3ccccc3F)cc2nc1N1CC[C@H](N)C1 [Compound 277] | 98% | 0.1 to 100 nM |
| CCn1nccc1C(=O)N1CCCC[C@H]1c1cc2nc(N3CC[C@H](N)C3)c(C)cn2n1 [Compound 278] | 99% | 0.1 to 100 nM |
| Cc1cn2nc([C@@H]3CCCCN3C(=O)c3cnn(C)c3C)cc2nc1N1CC[C@H](N)C1 [Compound 279] | 63% | 101 to 1000 nM |
| Cc1cn2nc([C@@H]3CCCCN3C(=O)c3cc(C)n(C)n3)cc2nc1N1CC[C@H](N)C1 [Compound 280] | 60% | 101 to 1000 nM |
| CCn1cc(C(=O)N2CCCC[C@H]2c2cc3nc(N4CC[C@H](N)C4)c(C)cn3n2)cn1 [Compound 281] | 37% | 101 to 1000 nM |
| Cc1cn2nc([C@@H]3CCCCN3C(=O)c3cccnc3F)cc2nc1N1CC[C@H](N)C1 [Compound 282] | 100% | 0.1 to 100 nM |
| Cc1cn2nc([C@@H]3CCCCN3C(=O)c3onc(C)c3C)cc2nc1N1CC[C@H](N)C1 [Compound 283] | 99.8% | 0.1 to 100 nM |
| CCc1ocnc1C(=O)N1CCCC[C@H]1c1cc2nc(N3CC[C@H](N)C3)c(C)cn2n1 [Compound 284] | 97.8% | 0.1 to 100 nM |
| Cc1cn2nc([C@@H]3CCCCN3C(=O)c3nnn(C)c3C)cc2nc1N1CC[C@H](N)C1 [Compound 285] | 100% | 0.1 to 100 nM |
| Cc1ccc(C(=O)N2CCCC[C@H]2c2cc3nc(N4CC[C@H](N)C4)c(C)cn3n2)s1 [Compound 286] | 100% | 0.1 to 100 nM |

| Structure (SMILES) | inhibition at 0.5 µM | EC50 |
| --- | --- | --- |
| Cc1cn2nc([C@@H]3CCCCN3C(=O)c3scnc3C)cc2nc1N1CC[C@H](N)C1 [Compound 287] | – | 1000 to 10000 nM |
| Cc1nc(C(=O)N2CCCC[C@H]2c2cc3nc(N4CC[C@H](N)C4)c(C)cn3n2)cs1 [Compound 288] | 100% | 0.1 to 100 nM |
| C#Cc1cccc(C(=O)N2CCCC[C@H]2c2cc3nc(N4CC[C@H](N)C4)c(C)cn3n2)c1 [Compound 289] | 100% | 0.1 to 100 nM |
| Cc1cn2nc([C@@H]3CCCCN3C(=O)c3ccc(C#N)cn3)cc2nc1N1CC[C@H](N)C1 [Compound 290] | – | 0.1 to 100 nM |
| Cc1cn2nc([C@@H]3CCCCN3C(=O)c3ccccc3CO)cc2nc1N1CC[C@H](N)C1 [Compound 291] | 88% | 0.1 to 100 nM |
| Cc1ccc(O)cc1C(=O)N1CCCC[C@H]1c1cc2nc(N3CC[C@H](N)C3)c(C)cn2n1 [Compound 292] | 59% | 101 to 1000 nM |
| Cc1ccc(C(=O)N2CCCC[C@H]2c2cc3nc(N4CC[C@H](N)C4)c(C)cn3n2)c(O)c1 [Compound 293] | 64% | 101 to 1000 nM |
| Cc1ccc(C(=O)N2CCCC[C@H]2c2cc3nc(N4CC[C@H](N)C4)c(C)cn3n2)cc1O [Compound 294] | 14% | 1000 to 10000 nM |
| COc1cccc(C(=O)N2CCCC[C@H]2c2cc3nc(N4CC[C@H](N)C4)c(C)cn3n2)c1 [Compound 295] | 97% | 0.1 to 100 nM |
| Cc1cn2nc([C@@H]3CCCCN3C(=O)c3n[nH]c4c3CCC4)cc2nc1N1CC[C@H](N)C1 [Compound 296] | 49% | 101 to 1000 nM |
| Cc1cn2nc([C@@H]3CCCCN3C(=O)c3cc(C4CC4)[nH]n3)cc2nc1N1CC[C@H](N)C1 [Compound 297] | 95% | 0.1 to 100 nM |
| Cc1ccc(C(=O)N2CCCC[C@H]2c2cc3nc(N4CC[C@H](N)C4)c(C)cn3n2)c(F)c1 [Compound 298] | 21% | 101 to 1000 nM |
| CCCn1nccc1C(=O)N1CCCC[C@H]1c1cc2nc(N3CC[C@H](N)C3)c(C)cn2n1 [Compound 300] | 99% | 0.1 to 100 nM |
| CCn1nc(C(=O)N2CCCC[C@H]2c2cc3nc(N4CC[C@H](N)C4)c(C)cn3n2)cc1C [Compound 301] | 100% | 0.1 to 100 nM |
| CCn1nc(C)cc1C(=O)N1CCCC[C@H]1c1cc2nc(N3CC[C@H](N)C3)c(C)cn2n1 [Compound 302] | 100% | 0.1 to 100 nM |
| CCc1cc(C(=O)N2CCCC[C@H]2c2cc3nc(N4CC[C@H](N)C4)c(C)cn3n2)n(C)n1 [Compound 303] | 100% | 0.1 to 100 nM |
| CCc1ccc(C(=O)N2CCCC[C@H]2c2cc3nc(N4CC[C@H](N)C4)c(C)cn3n2)s1 [Compound 304] | 100% | 0.1 to 100 nM |
| Cc1cn2nc([C@@H]3CCCCN3C(=O)c3cccc(Cl)n3)cc2nc1N1CC[C@H](N)C1 [Compound 305] | 100% | 0.1 to 100 nM |
| Cc1cn2nc([C@@H]3CCCCN3C(=O)c3cncc(Cl)c3)cc2nc1N1CC[C@H](N)C1 [Compound 306] | 100% | 0.1 to 100 nM |
| Cc1cn2nc([C@@H]3CCCCN3C(=O)c3cccc(F)c3F)cc2nc1N1CC[C@H](N)C1 [Compound 307] | 100% | 0.1 to 100 nM |

From patent publication US9238039B2, “Pyrazolo[1,5-A]pyrimidines for antiviral treatment” (Gilead Sciences, Inc., priority 2010, dated 2016)
